This is an account of results in patent US20090092664A1, “POLYMER-METAL CHELATOR CONJUGATES AND USES THEREOF” (UNIVERSITY OF KENTUCKY RESEARCH FOUNDATION, priority 2007, published 2009).

In data set [1] the test system is HL-60 cells. The experiment in a line: Intracellular ROS (H2DCFDA), HL-60 cells. It counts as cell-based, human. As to conditions: D-pen 200 μM, cupric sulfate 10 μM, catalase 500 U/mL with D-pen plus cupric sulfate. The protocol:
(§1) FIGS. 4A-B: D-pen in the presence of cupric sulfate generates intracellular ROS in breast cancer and leukemia cells. […] Cells were incubated without (positive control) or with H2O2, H2O2 plus catalase, cupric sulfate, D-pen, D-pen plus cupric sulfate, D-pen plus cupric sulfate plus catalase in media. Unloaded cells were used as negative control. The cell associated fluorescence was measured at 30, 60, 90 min at excitation and emission of 485±20 nm and 530±25 nm, respectively. Data are reported as the DCF fluorescence (fold increase versus control).
(§2) 2′-7′-dichlorodihydrofluorescein diacetate (H2DCFDA) was used as an indicator of intracellular ROS generation. H2DCFDA is a cell permeable probe, it enters the cell and is deacetylated to a non-fluorescent product, 2′-7′-dichlorodihydrofluorescein (H2DCF) by cellular esterases and is oxidized by ROS to a fluorescent product, 2′-7′-dichlorofluorescein (DCF). MCF-7 and HL-60 cells were loaded with H2DCFDA and were seeded in a 96 well plate at a concentration of 3×10^4 cells/well. Briefly, cells were incubated with PBS buffer containing 5 μM H2DCFDA (dissolved in DMSO) for 30 min at 37° C. H2DCFDA was then removed and cells were washed twice with fresh PBS to remove excess H2DCFDA. Cells were then incubated with either drug in media or media alone (positive control). Non-H2DCFDA loaded cells were used as negative control. The fluorescence of control and sample wells was recorded at excitation 485±20 nm, emission 530±25 nm with Biotek FL600 (Biotek Instruments, Winooski, Vt.) at 30, 60, and 90 min. Then data is reported as DCF fluorescence (fold increase vs. control) corresponding to the increase of fluorescence associated with the sample cells compared to that of untreated cells.

Data set [2] relates to MCF-7 cells. The experiment in a line: Intracellular ROS (H2DCFDA), MCF-7 cells. The following applies: for intracellular ROS generation (in words): D-pen 200 μM, cupric sulfate 10 μM, catalase 500 U/mL with D-pen plus cupric sulfate. Type of data set: cell-based, human. The protocol:
as §1, §2

For data set [3], the system named is HL-60 cells. It counts as cell-based, human. On the procedure:
FIG. 19: Cellular uptake of D-pen. D-pen (100 μM) was added to HL-60 (1×10^6) cells in PBS (pH 7.4) in a 24-well plate at 37° C. in 5% CO2 incubator. Cells were separated by centrifugation and the supernatant was analyzed by HPLC assay for D-pen concentration. Data represents mean±SD (n=4).
Quantitative cell uptake of free D-pen. The quantitative cell uptake of free D-pen was investigated in HL-60 cells. Briefly, D-pen (100 μM) was incubated with HL-60 (1×10^6) cells in PBS, pH 7.4 at 37° C. in a 5% CO2 incubator. Cells were incubated for 1-4 h. At pre-determined time the cells were separated by centrifugation and the supernatant was analyzed for the remaining concentration of D-pen as present as either free D-pen or D-pen disulfide using the HPLC assay previously described (Gupte and Mumper, 2007).

Data set [4] deals with HL-60 cells. The data set is described as follows: Cytotoxicity of PGA-D-pen conjugate (MTT), HL-60. As to conditions: HL-60, 48 h. Type of data set: cell-based, human.
Experimental: (§4) Cell Culture and Cytotoxicity: The P388 cells and HL-60 cells were plated at 1×10^4 and 4×10^4 cells respectively in 200 μl of medium per well in round bottom 96-well microwell plates. The MDA-MB-468 cells were plated at 1×10^4 cells/well in 96-well flat bottom microwell plates and allowed to attach overnight. Equal volumes of PGA-D-pen conjugate, PGA, D-pen, PGA+D-pen or PBS were added and the plates were incubated for 48 h (37° C., 5% CO2). 20 μl of MTT reagent (5 mg/ml in PBS; Sigma) was added to each well and re-incubated for 3-4 h to allow formation of formazan crystals. The round bottom plates were centrifuged at 200 g for 5 min. Subsequently, the supernatant was aspirated and 200 μl of DMSO were added to each well and the plate was incubated at room temperature for 1 h to lyse the cells and solubilize formazan. The optical density of each well at 570 nm was measured on a Synergy™ 2 Multi-Detection Microplate Reader (Biotek, Winooski, Vt.). Percent viability in treated wells was calculated as the percentage of optical density in control wells.
In another data set the test system is P388 cells. The experiment in a line: Cytotoxicity of PGA-D-pen conjugate (MTT), P388. It counts as cell-based. As to conditions: P388, 48 h.
The subject of the next data set is MDA-MB-468 cells. The experiment in a line: Cytotoxicity of PGA-D-pen conjugate (MTT), MDA-MB-468. It counts as cell-based. The following applies: MDA-MB-468, 48 h.
For data set [5], the system named is HL-60 cells. The data set is described as follows: Intracellular ROS (carboxy-H2DCFDA), HL-60 cells. It counts as cell-based, human. The following applies: naive HL-60, carboxy-H2DCFDA 25 μM, 8 h after treatment.
The conditions of data set [6]: cited from earlier work.
For data set [7] the following is noted: cited from earlier work. This is another data set of the same source.
A further data set deals with HL-60/VCR cells. The data set is described as follows: MTT cell viability assay, HL-60/VCR leukemia cells. Type of data set: cell-based, human. The protocol: (§3) FIGS. 1A-B: […] Cell viability was determined with the MTT assay. […] Data are represented as the mean±standard error (SE). […] San Diego, Calif.).
Another data set concerns HL-60/ADR cells. The experiment in a line: MTT cell viability assay, HL-60/ADR leukemia cells. Type of data set: cell-based, human. On the procedure:
as §3
In general terms: Tetrazolium assays rely on reduction of a dye to a coloured formazan, in cell work by metabolically active cells.

A further data set has as its system BT474 cells. The experiment in a line: MTT cell viability assay, BT474 breast cancer cells. It counts as cell-based, human. The protocol: FIGS. 2A-B: […] Cell viability was determined with MTT assay. […] Inhibitory concentration (IC50) was reported as mean±S.E. […] Data are represented as the mean±standard error (SE). […] San Diego, Calif.).
In data set [8] the test system is MCF-7 cells.
Experimental: (§5) Cell viability was determined with MTT assay. Absorbance was measured at 595 nm and adjusted to the absorbance of untreated cells. Data represent mean±SE; n=12 (two independent experiments performed in n=6). Inhibitory concentration (IC50) was reported as mean±S.E.
(§6) Cell viability was measured using the 3-(4,5-dimethyl-2-yl)-2,5-diphenylteraolium bromide (MTT) assay. The adherent breast cancer cells (MCF-7 and BT474) were seeded at an initial concentration of 3×10^4 cells/well 24 h prior to the commencement of the experiments to allow them to attach, while the suspension leukemia cells, HL-60, HL-60-/VCR and HL-60/ADR were seeded at 3×10^4 cells/well on the same day of the experiment in a 96 well plate. […] The MTT assay was performed at 48 h and absorbance was measured with the microplate reader (Biotek ELx 800, Biotek Instruments, Winooski, Vt.) at a wavelength of 595 nm. Data is reported as cell viability (% control) and corresponds to the percent viable cells compared to untreated cells.
(§7) Data are represented as the mean±standard error (SE). Each experimental group consisted of n=6 and experiments were repeated two times. […] The IC50 was calculated with GraphPad Prism® non-linear regression program.
For data set [9], the system named is HL-60 cells. The data set is described as follows: cells. The following applies: Homo sapiens, HL-60, 48 h.
Experimental: Cell viability was determined with the MTT assay. Absorbance was measured at 595 nm and adjusted to the absorbance of untreated cells. Data represent mean±SE; n=12 (two independent experiments performed in n=6). Inhibitory concentrations (IC50) were reported as the mean±S.E in the figure legend.
as §6, §7
Data set [10] concerns MCF-7 cells. The data set is described as follows: cells. As to conditions: Homo sapiens, MCF7, 48 h.
Experimental: as §5, §6, §7
For data set [11], the system named is HL-60 cells. As to conditions: cupric sulfate alone 0.1-50 μM, data not shown.
The test system of data set [12] is HL-60 cells. The data set is described as follows: In-vitro cytotoxicity of gelatin-D-pen conjugate (MTT). As to conditions: cupric sulfate up to 100 μM, p>0.05 versus control.
Experimental: Cells (2×10^4) were incubated with gelatin alone (1 mg/mL), D-pen alone (100 μM), gelatin (1 mg/mL) plus D-pen (100 μM), and gelatin-D-pen conjugate (1 mg/mL) After every 2 day interval media was replaced with fresh media. MTT assay was performed on day 2, 4, 6, 8 and 10. Data represents mean±SD (n=6). **p<0.01 and ***p<0.001 compared to gelatin plus D-pen.
In-vitro cytotoxicity of gelatin-D-pen conjugate. The HL-60 cells were seeded at a density of 2×10^4 cells/mL in a 96 well plate. […] The above experiments were repeated with the copper pre-treated cells. Cell viability was determined at 24 and 72 h with MTT assay.
The mark [13] stands for this setting: cupric sulfate alone 0.1-50 μM, data not shown.

Experimental for MDA-MB-468 cells: as §4
Experimental for P388 cells: as §4

Regarding `CC(C)(S)[C@@H](N)C(=O)O` [D-pen, D-penicillamine], the “intracellular ROS generation (in words)” value in the data set with HL-60 cells [1] and in the data set on MCF-7 cells [2] was “failed to produce any ROS” throughout. For the same compound, the “cell uptake of free D-pen (in words)” value with HL-60 cells [3] is reported as “not to enter leukemia cells”. Further, the “reduction in cell viability (in words)” value in the data set on HL-60 cells [4], with P388 cells and with MDA-MB-468 cells was “did not cause significant reduction in cell viability” in each case. The “intracellular ROS levels (in words)” value in the data set on HL-60 cells [5] was “no increase in intracellular ROS”. For the same compound, the “Log P” value in data set [6] was −0.39. In [7], the “half-life, biphasic elimination from the blood, first value” is 6 to 7 min. Besides, the “half-life, biphasic elimination from the blood, second value” in data set [7] was 52 to 55 min.

Consider `OO` [H2O2, hydrogen peroxide], for which the “fold difference between IC50 of D-pen plus cupric sulfate and IC50 of H2O2 alone” value in the data set with HL-60/VCR cells is listed as about 4 fold; with BT474 cells (BT474), about 3 fold; in the data set with MCF-7 cells [8] it was “approximately 2 fold”. Moreover, the IC50 was 31.5 ± 1.1 µM with HL-60/VCR cells (Homo sapiens, HL60/VCR, 48 h, MTT, D-pen with cupric sulfate 10 μM); 162.5 ± 1.1 µM with HL-60/ADR cells (Homo sapiens, HL60/ADR, 48 h, MTT, D-pen (1-400 μM) with cupric sulfate 10 μM); 96.1 ± 1.1 µM in the data set with BT474 cells (Homo sapiens, BT-474, BT474, 48 h, MTT); 20 ± 1 µM in the data set on HL-60 cells [9]; 116 ± 1.6 µM in the data set with MCF-7 cells [10]. Also, the “ROS generated compared to D-pen plus cupric sulfate” value with MCF-7 cells [2] (H2O2 alone 100 μM) is recorded as 5 fold.

Turning to `O=S(=O)([O-])[O-].[Cu+2]` [cupric sulfate], the “loss in cell viability” value in the data set with HL-60/VCR cells (setting [13]), in the data set with HL-60/ADR cells (setting [13]) and in the data set with HL-60 cells [11] was “did not result in any appreciable loss in cell viability” each time. The “intracellular ROS generation (in words)” value with HL-60 cells [1] and in the data set on MCF-7 cells [2] was “failed to produce any ROS” in each case. Moreover, the “effect of copper pre-treatment on cell number or viability” value in the data set with HL-60 cells [12] is given as “did not result in statistically significant decrease in cell number or viability”.

Consider `CCCCCCOC(=O)[C@H](N)C(C)(C)S` [hexyl-D-pen-ester], for which, in [6], the “Log P” value is listed as 1.61.

Turning to catalase, the “intracellular ROS generation (in words)” value with HL-60 cells [1] and with MCF-7 cells [2] was “completely inhibited ROS generation” in each case.

The term Log P denotes the decadic logarithm of the partition coefficient of the neutral form, usually between octanol and water. What is called IC50 is the midpoint of a concentration-inhibition curve. The low end stands for greater potency, the high end for weaker potency.
